Structures can show the parent of a compound that is named as a salt.
Tests used:
Human 5-HT1A Receptor [1] = target: T1, Human 5-HT1A Receptor (Homo sapiens, UniProt P08908); assay: 8-OH-DPAT binding, human 5-HT1A receptor cell line; settings: stably transfected CHO cells, 8-OH-DPAT ligand 1.5 nM; read-out: h5-HT1A Affinity, Ki
T1 construct: expressed in transfected cells; host or cells: CHO cells
T1 sequence (P08908 1-422): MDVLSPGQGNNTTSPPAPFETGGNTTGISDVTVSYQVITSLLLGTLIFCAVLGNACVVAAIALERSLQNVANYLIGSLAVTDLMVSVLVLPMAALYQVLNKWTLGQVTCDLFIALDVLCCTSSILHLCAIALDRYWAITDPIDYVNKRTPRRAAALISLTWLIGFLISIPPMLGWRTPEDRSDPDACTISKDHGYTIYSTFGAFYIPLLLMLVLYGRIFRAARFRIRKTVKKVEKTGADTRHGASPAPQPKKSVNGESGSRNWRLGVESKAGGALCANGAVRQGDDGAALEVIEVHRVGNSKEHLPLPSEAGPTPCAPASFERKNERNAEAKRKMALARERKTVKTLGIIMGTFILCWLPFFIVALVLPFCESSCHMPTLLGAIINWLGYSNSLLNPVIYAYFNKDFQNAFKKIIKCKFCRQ
Procedure: Stably transfected CHO cells were grown in DMEM containing 10% heat inactivated FBS and non-essential amino acids. Cells were scraped off the plate, transferred to centrifuge tubes, and washed twice by centrifugation (2000 rpm for 10 min., 4° C.) in buffer (50 mM Tris, pH 7.5). The resulting pellets were aliquoted and placed at −80° C. On day of assay, the cells were thawed on ice, and resuspended in buffer. The binding assay was performed in a 96 well microtiter plate in a total volume of […]. Non-specific binding was determined in the presence of […] 5HT; final ligand concentration was 1.5 nM. Following a 30 min. incubation at room temperature, the reaction was terminated by the addition of ice cold buffer and rapid filtration through a GF/B filter presoaked for 30 min. in 0.5% PEI. Compounds were initially tested in a single point assay to determine percent inhibition at […]. Subsequently, Ki values were determined for compounds defined to be active. Percent inhibition Ki was determined by RFComp (Lundon Software), with Serotonin 8-OH-DPAT as the reference compounds.

serotonin transporter = target: T2, serotonin transporter (Rattus norvegicus, UniProt P31652); assay: 3H-paroxetine binding to the serotonin transporter, rat frontal cortical membranes; settings: 3H-paroxetine 0.1 nM; for Ki: values printed without parentheses, read-out: rb-5-HH-T, Ki
T2 construct: frontal cortical membranes prepared from male S.D. rats; from tissue; host or cells: rat frontal cortex membranes (male Sprague-Dawley)
Procedure: A protocol similar to that used by Cheetham et al. (Neuropharmacol. 32:737, 1993) was used to determine the affinity of compounds for the serotonin transporter. Briefly, frontal cortical membranes prepared from male S.D. rats were incubated with ^3H-paroxetine (0.1 nM) for 60 min at 25° C. All tubes also contained either vehicle, test compound (one to eight concentrations), or a saturating concentration of fluoxetine (10 μM) to define […]. All reactions are terminated by the addition of ice cold Tris buffer followed by rapid filtration using a Tom Tech filtration device to separate bound from free ^3H-paroxetine. Bound radioactivity was quantitated using a Wallac 1205 Beta Plate® counter. Nonlinear regression analysis was used to determine IC50 values which were converted to Ki values using the method of Cheng and Prusoff (Biochem. Pharmacol. 22: 3099, 1973); […].

Human 5-HT1A Receptor [2] = target: T1, Human 5-HT1A Receptor; assay: cAMP RIA in human 5-HT1A receptor cell line; assay type: cell-based; settings: CHO cells; for IC50: superscript b, reversal of agonist activity, read-out: c-AMP, (IC50)^b; for EC50: superscript a, read-out: c-AMP, (EC50)^a; for EC50 / Emax: forskolin stimulated cAMP; for Emax: superscript c, read-out: c-AMP, (Emax)^c
Procedure: Stably transfected CHO cells were grown in DMEM containing 10% heat inactivated FBS and non-essential amino acids. The cells were plated at a density of 10^6 cells per well in a 96 well plate and incubated for 2 days in a CO2 incubator. On the second day, the media was replaced with 0.1 ml Krebs and incubated 15 minutes at 37° C. The media was then replaced with Krebs buffer containing 500 uM IBMX and incubated 5 minutes at 37° C. Wells were treated with forskolin (1 uM final conc) followed immediately by test compound (0.1 and 1 uM for initial screen) and incubated for an additional 10 min at 37° C. Reaction was terminated by removal of the media and addition of 0.5 ml ice cold assay buffer (supplied in RIA kit). Plates are stored at −20° C. prior to assessment of cAMP formation by RIA. Compounds shown to have no agonist activities were further analyzed for ability to reverse agonist activity. In separate experiments, 6 concentrations of antagonist were preincubated for 20 min prior to the addition of agonist and forskolin. Cells were harvested as described. The cAMP kit is supplied by Amersham and the RIA is performed as per kit instructions. In the initial screen, percent inhibition of forskolin stimulated cAMP was measured. In the secondary screen, IC50 of reversal of agonist activity was measured. Calculations of IC50 were performed by GraphPad Prism. Serotonin, BMY 7378, Buspirone, and 8-OH-DPAT were used as reference compounds.

h-5-HT-T = h-5-HT-T (Homo sapiens, UniProt P31645); assay: h-5-HT-T IC50 (Table 1, no method described)
h-5-HT-T, sequence (P31645 whole entry): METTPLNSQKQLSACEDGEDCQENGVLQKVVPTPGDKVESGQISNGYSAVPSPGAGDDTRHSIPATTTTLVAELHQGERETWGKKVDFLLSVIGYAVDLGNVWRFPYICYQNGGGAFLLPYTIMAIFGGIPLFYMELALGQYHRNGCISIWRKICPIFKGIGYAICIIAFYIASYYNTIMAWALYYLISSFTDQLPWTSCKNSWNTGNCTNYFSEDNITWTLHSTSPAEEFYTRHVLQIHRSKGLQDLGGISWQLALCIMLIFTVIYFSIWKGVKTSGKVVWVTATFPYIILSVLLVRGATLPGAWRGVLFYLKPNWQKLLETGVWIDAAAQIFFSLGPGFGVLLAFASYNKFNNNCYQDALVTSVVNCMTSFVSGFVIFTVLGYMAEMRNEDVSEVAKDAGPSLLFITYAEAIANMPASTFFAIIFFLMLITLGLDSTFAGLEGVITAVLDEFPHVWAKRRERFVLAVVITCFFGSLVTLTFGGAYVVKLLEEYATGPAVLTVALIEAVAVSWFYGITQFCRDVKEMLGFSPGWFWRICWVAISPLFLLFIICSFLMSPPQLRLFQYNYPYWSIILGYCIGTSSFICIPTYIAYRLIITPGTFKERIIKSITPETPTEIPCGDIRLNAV

T2 sequence (P31652 whole entry): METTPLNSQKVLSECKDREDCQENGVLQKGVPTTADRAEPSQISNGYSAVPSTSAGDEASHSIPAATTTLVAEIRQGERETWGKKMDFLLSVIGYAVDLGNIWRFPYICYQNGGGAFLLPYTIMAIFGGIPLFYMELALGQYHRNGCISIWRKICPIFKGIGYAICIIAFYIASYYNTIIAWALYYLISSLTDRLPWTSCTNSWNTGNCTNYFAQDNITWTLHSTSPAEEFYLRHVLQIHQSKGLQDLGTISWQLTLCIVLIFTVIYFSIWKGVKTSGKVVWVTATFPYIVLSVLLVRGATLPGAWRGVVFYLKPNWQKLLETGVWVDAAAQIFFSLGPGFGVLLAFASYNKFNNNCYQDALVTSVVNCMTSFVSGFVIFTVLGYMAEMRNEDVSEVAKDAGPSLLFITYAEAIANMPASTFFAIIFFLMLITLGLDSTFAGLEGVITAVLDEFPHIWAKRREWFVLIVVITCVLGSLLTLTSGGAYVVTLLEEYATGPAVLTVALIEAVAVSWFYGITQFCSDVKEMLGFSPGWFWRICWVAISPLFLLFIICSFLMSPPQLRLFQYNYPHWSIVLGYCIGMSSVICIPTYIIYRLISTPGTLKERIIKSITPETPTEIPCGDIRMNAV

IC50 (Human 5-HT1A Receptor [2]) [nM] | IC50 (serotonin transporter; values printed in parentheses, read-out: rb-5-HH-T, (IC50)) [nM] | melting point [°C] | SMILES | Ki (Human 5-HT1A Receptor [1]) [nM] | Ki (serotonin transporter) [nM] | IC50 (h-5-HT-T) [nM] | EC50 (Human 5-HT1A Receptor [2]) [nM] | Emax (Human 5-HT1A Receptor [2]) [%]
17.7 | – | – | Cc1ccc2c3c(ccc2n1)OC[C@H](CNCC1CCc2sc4ccccc4c2C1)O3 (single isomer, unassigned) [32 diastereomer 2] | 6.49 | 47.6 | 885 | – | –
– | – | – | Cc1ccc2c3c(ccc2n1)OC[C@H](CN[C@@H]1CCc2c([nH]c4ccc(F)cc24)C1)O3 (single isomer, unassigned) [Example 47, dihydrochloride] | 186 | 12.8 | 102 ± 7.07 | 300 | 59
– | – | – | Cc1ccc2c3c(ccc2n1)OC[C@H](CN(C[C@@H]1CCc2[nH]c4ccc(F)cc4c2C1)C(C)C)O3 [Example 57, N-{[(3R)-6-Fluoro-2,3,4,9-tetrahydro-1H-carbazol-3-yl]methyl}-N-{[(2S)-8-methyl-2,3-dihydro[1,4]dioxino[2,3-f]quinolin-2-yl]methyl}propan-2-amine monohydrochloride monohydrate] | 6140 | 1570 | 1130 ± 109 | – | –
– | – | – | Cc1ccc2c3c(ccc2n1)OC[C@H](CN(C[C@H]1CCc2[nH]c4ccc(F)cc4c2C1)C1CCCC1)O3 [Example 63, N-{[(3S)-6-Fluoro-2,3,4,9-tetrahydro-1H-carbazol-3-yl]methyl}-N-{[(2S)-8-methyl-2,3-dihydro[1,4]dioxino[2,3-f]quinolin-2-yl]methyl}cyclopentanamine monohydrochloride monohydrate] | – | 113 | 389 ± 38.2 | 1350 | 73
– | – | – | Cc1ccc2c3c(ccc2n1)OC[C@H](CN(CC1CCc2c(c4cc(F)ccc4n2C)C1)C1CCCC1)O3 (stereo partly drawn) [Example 66, N-[(6-Fluoro-9-methyl-2,3,4,9-tetrahydro-1H-carbazol-3-yl)methyl]-N-{[(2S)-8-methyl-2,3-dihydro[1,4]dioxino[2,3-f]quinolin-2-yl]methyl}cyclopentanamine monohydrochloride monohydrate] | – | – | 62.3 ± 9.19 | 163 | 67.5
– | – | – | CCCN(CC1CCc2[nH]c3ccc(F)cc3c2C1)C[C@H]1COc2ccc3nc(C)ccc3c2O1 (stereo partly drawn) [Example 51, N-[(6-Fluoro-2,3,4,9-tetrahydro-1H-carbazol-3-yl)methyl]-N-{[(2S)-8-methyl-2,3-dihydro[1,4]dioxino[2,3-f]quinolin-2-yl]methyl}propan-1-amine dihydrochloride dihydrate] | 1290 | 88 | 22.3 ± 3.32 | 171 | 59
– | – | – | CCC(C)N(C[C@H]1CCc2[nH]c3ccc(F)cc3c2C1)C[C@H]1COc2ccc3nc(C)ccc3c2O1 (stereo partly drawn) [Example 62, N-{[(3S)-6-Fluoro-2,3,4,9-tetrahydro-1H-carbazol-3-yl]methyl}-N-{[(2S)-8-methyl-2,3-dihydro[1,4]dioxino[2,3-f]quinolin-2-yl]methyl}butan-2-amine monohydrochloride monohydrate] | 1960 | – | 730 ± 9.19 | – | –
– | – | – | CCC(C)N(C[C@@H]1CCc2[nH]c3ccc(F)cc3c2C1)C[C@H]1COc2ccc3nc(C)ccc3c2O1 (stereo partly drawn) [Example 58, N-{[(3R)-6-Fluoro-2,3,4,9-tetrahydro-1H-carbazol-3-yl]methyl}-N-{[(2S)-8-methyl-2,3-dihydro[1,4]dioxino[2,3-f]quinolin-2-yl]methyl}butan-2-amine monohydrochloride monohydrate] | 1190 | 358 | 113 ± 22.5 | – | 22
– | – | – | Cc1ccc2c3c(ccc2n1)OC[C@H](CN(CC1CCc2c(c4cc(F)ccc4n2C)C1)C1CCCCC1)O3 (stereo partly drawn) [Example 67, N-[(6-Fluoro-9-methyl-2,3,4,9-tetrahydro-1H-carbazol-3-yl)methyl]-N-{[(2S)-8-methyl-2,3-dihydro[1,4]dioxino[2,3-f]quinolin-2-yl]methyl}cyclohexanamine monohydrochloride monohydrate] | – | – | 505 ± 9.55 | – | –
– | – | – | Cc1ccc2c3c(ccc2n1)OC[C@H](CN(C[C@H]1CCc2[nH]c4ccc(F)cc4c2C1)C(C)C)O3 [Example 61, N-{[(3S)-6-Fluoro-2,3,4,9-tetrahydro-1H-carbazol-3-yl]methyl}-N-{[(2S)-8-methyl-2,3-dihydro[1,4]dioxino[2,3-f]quinolin-2-yl]methyl}propan-2-amine monohydrochloride monohydrate] | – | – | 1700 ± 46 | – | –
– | – | – | Cc1ccc2c3c(ccc2n1)OC[C@H](CN(C[C@@H]1CCc2[nH]c4ccc(F)cc4c2C1)C1CCCCC1)O3 [Example 60, N-{[(3R)-6-fluoro-2,3,4,9-tetrahydro-1H-carbazol-3-yl]methyl}-N-{[(2S)-8-methyl-2,3-dihydro[1,4]dioxino[2,3-f]quinolin-2-yl]methyl}cyclohexanamine monohydrochloride monohydrate] | – | 394 | 995 ± 24.4 | – | –
– | – | – | Cc1ccc2c3c(ccc2n1)OCC(CN(CC1CCc2c(c4cc(F)ccc4n2C)C1)C(C)C)O3 [Example 65, N-[(6-Fluoro-9-methyl-2,3,4,9-tetrahydro-1H-carbazol-3-yl)methyl]-N-([(2S)-8-methyl-2,3-dihydro[1,4]dioxino[2,3-f]quinolin-2-yl]methylpropan-2-aminemonohydrochloride monohydrate] | – | – | 403 ± 29 | – | –
– | – | – | Cc1ccc2c3c(ccc2n1)OC[C@H](CN(C[C@H]1CCc2[nH]c4ccc(F)cc4c2C1)C1CCCCC1)O3 [Example 64, N-{[(3S)-6-Fluoro-2,3,4,9-tetrahydro-1H-carbazol-3-yl]methyl}-N-{[(2S)-8-methyl-2,3-dihydro[1,4]dioxino[2,3-f]quinolin-2-yl]methyl}cyclohexanamine monohydrochloride monohydrate] | – | 455 | 2490 ± 269 | – | –
– | – | – | Cc1ccc2c3c(ccc2n1)OC[C@H](CN[C@@H]1CCc2c([nH]c4ccccc24)C1)O3 (single isomer, unassigned) [Example 44, dihydrochloride] | 620 | – | 22.1 ± 2.51 | 225 | 74
26.7 | 180 | 84 to 90 | Cc1ccc2c3c(ccc2n1)OC[C@H](CNCC1CCc2c(c4c(F)cccc4n2C)C1)O3 (stereo partly drawn) [Example 12, N-[(5-fluoro-9-methyl-2,3,4,9-tetrahydro-1H-carbazol-3-yl)methyl]-N-{[(2S)-8-methyl-2,3-dihydro[1,4]dioxino[2,3-f]quinolin-2-yl]methyl}amine] | 0.54 | – | – | – | –

Source: US7297704B2, “Cycloalkyfused indole, benzothiophene, benzofuran and idene derivatives” (Wyeth, priority 2005, dated 2007)
